Results reported in patent US12252490B2, “Inhibiting deubiquitinase USP25 and USP28” (Valo Health, Inc., priority 2018, dated 2025).

Target: T1, USP28 (USP28-5(1-1077)-TEV-6*His; LifeSensors) (Homo sapiens, UniProt Q96RU2)
T1 construct: construct USP28 (USP28-5(1-1077)-TEV-6*His; LifeSensors); TEV cleavage site (C); 6xHis (C); purchased LifeSensors
T1 sequence (Q96RU2 1-1077): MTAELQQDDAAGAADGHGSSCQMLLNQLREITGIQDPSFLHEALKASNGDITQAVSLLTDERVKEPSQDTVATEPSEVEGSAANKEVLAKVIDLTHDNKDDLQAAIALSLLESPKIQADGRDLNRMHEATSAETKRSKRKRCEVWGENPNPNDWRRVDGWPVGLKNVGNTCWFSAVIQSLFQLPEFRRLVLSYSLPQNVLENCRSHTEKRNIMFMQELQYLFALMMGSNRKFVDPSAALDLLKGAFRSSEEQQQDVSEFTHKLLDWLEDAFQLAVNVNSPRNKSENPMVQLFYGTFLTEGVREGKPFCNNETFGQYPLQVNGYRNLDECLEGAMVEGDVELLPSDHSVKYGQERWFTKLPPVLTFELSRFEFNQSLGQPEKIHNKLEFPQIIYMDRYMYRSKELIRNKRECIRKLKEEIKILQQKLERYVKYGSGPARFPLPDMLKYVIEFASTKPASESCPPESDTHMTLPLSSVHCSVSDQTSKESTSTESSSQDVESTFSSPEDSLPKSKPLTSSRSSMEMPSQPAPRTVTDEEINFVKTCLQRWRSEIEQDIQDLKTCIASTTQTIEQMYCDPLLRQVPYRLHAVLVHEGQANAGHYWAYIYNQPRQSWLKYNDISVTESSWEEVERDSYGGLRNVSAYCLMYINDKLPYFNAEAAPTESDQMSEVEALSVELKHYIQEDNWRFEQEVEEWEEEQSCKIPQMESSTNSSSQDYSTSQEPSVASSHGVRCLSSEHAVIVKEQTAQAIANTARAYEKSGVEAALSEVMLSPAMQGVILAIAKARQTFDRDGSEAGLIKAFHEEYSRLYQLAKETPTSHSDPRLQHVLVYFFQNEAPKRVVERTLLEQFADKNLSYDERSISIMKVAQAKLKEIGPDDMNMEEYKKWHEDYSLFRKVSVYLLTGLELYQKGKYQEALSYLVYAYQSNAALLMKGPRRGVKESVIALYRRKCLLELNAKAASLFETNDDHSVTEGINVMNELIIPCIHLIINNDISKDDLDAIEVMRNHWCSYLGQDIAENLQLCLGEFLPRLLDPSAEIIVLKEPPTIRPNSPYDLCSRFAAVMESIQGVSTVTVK
Assay: Ubiquitin-Rhodamine 110 Assay for USP28 Activity, Example A-1(b)
Assay type: biochemical
Conditions: 75 pM enzyme, 25 nM Ub-Rh110, 384-well follow-up format
Procedure: Each assay was performed in a final volume of 20 μL in assay buffer containing 20 mM Tris-HCl (pH 8.0, (1M Tris-HCl, pH 8.0 solution; Corning 46-031-CM)), 2 mM CaCl2 (1M Calcium Chloride solution; Sigma #21114) 2 mM BME (2-Mercaptoethanol; Sigma 63689-25ML-F), 0.01% Prionex ([…] filtered, Sigma #G-0411), and 0.01% Triton X-100. Stock compound solutions were stored at −20° C. as 10 mM in DMSO. Up to 1 month prior to the assay, 2 mM test compounds were pre-dispensed into assay plates (Black, low volume; Corning #3820) and frozen at −20° C. Prestamped assay plates were allowed to come to room temperature on the day of the assay. For the screen, 100 nL of 2 mM was pre-dispensed for a final screening concentration of 10 μM (DMSO(fc)=0.5%). Enzyme (USP28, construct USP28 (USP28-5(1-1077)-TEV-6*His; LifeSensors) concentration and incubation times were optimized for the maximal signal-to-background while maintaining initial velocity conditions at a fixed substrate concentration. The final concentration of the enzyme in the assay was 400 pM. Final substrate (Ub-Rh110; Ubiquitin-Rhodamine 110, R&D Systems #U-555) concentration was 25 nM with [Ub-Rh110]<<Km. 10 μL of 2× enzyme was added to assay plates (pre-stamped with compound) either simultaneously with 2×Ub-Rh110 or preincubated with USP28 40 minutes prior to the addition of 10 μL of 2×Ub-Rh110 to compound plates. Plates were incubated stacked for 90 minutes at room temperature before fluorescence was read on the Envision (Excitation at 485 nm and Emission at 535 nm; Perkin Elmer) or on the PheraSTAR (Excitation at 485 nm and Emission at 535 nm; BMG Labtech).
For follow-up studies, each assay was performed in a final volume of 15 μL in assay buffer containing 20 mM Tris-HCl (pH 8.0, (1M Tris-HCl, pH 8.0 solution; Corning 46-031-CM)), 3 mM BME (2-Mercaptoethanol; Sigma 63689-25ML-F), 0.03% BGG (0.22 μM filtered, Sigma, G7516-25G), and 0.01% Triton X-100 (Sigma, T9284-10L). Nanoliter quantities of either an 8-point or 10-point, 3-fold serial dilution in DMSO was pre-dispensed into assay plates (Perkin Elmer, ProxiPlate-384 F Plus, #) for a final test concentration of either 25 μM to 11 nM or 25 μM to 1.3 nM, respectively. Enzyme USP28, construct USP28 (USP28-5(1-1077)-TEV-6*His; LifeSensors) concentration and incubation times were optimized for the maximal signal-to-background while maintaining initial velocity conditions at a fixed substrate concentration. The final concentration of the enzyme in the assay was 75 pM. Final substrate (Ub-Rh110; Ubiquitin-Rhodamine 110, R&D Systems #U-555) concentration was 25 nM with [Ub-Rh110]<<Km. 5 μL of 2× enzyme was added to assay plates (pre-stamped with compound) preincubated with USP28 for 30 minutes and then 5 μL of 2×Ub-Rh110 was added to assay plates. Plates were incubated stacked for 20 minutes at room temperature before 5 μL of stop solution was added (final concentration of 10 mM citric acid (Sigma, 251275-500G)). Fluorescence was read on the Envision (Excitation at 485 nm and Emission at 535 nm; Perkin Elmer) or on the PheraSTAR (Excitation at 485 nm and Emission at 535 nm; BMG Labtech).
For assay formats Examples A-1a, A-1b, and A-2, data were reported as percent inhibition compared with control wells based on the following equation: % inh=1−((FLU−AveLow)/(AveHigh−AveLow)) where FLU=measured Fluorescence, AveLow=average Fluorescence of no enzyme control (n=16), and AveHigh=average Fluorescence of DMSO control (n=16). IC50 values were determined by curve fitting of the standard 4 parameter logistic fitting algorithm included in the Activity Base software package: IDBS XE Designer Model205. Data is fitted using the Levenburg Marquardt algorithm.

| Structure (SMILES) | Assay A-1(b) (IC50 range) |
| --- | --- |
| CCn1ccc2cc(C(=O)NC[C@@H](C)c3cc(F)c(N4CCNCC4)cc3F)cnc21 (single isomer, unassigned) [Example 2-1] | ++ (“++”: 0.2-2 μM) |
| CCn1ccc2cc(C(=O)NC[C@H](C)c3cc(F)c(N4CCNCC4)cc3F)cnc21 (single isomer, unassigned) [Example 2-2] | + (“+”: 2-10 μM) |
| CCn1ccc2cc(C(=O)NC[C@H](C)c3cc(F)c(N4CC5CCC(C4)N5)cc3F)cnc21 (single isomer, unassigned) [Example 2-3] | ++ (“++”: 0.2-2 μM) |
| CCn1ccc2cc(C(=O)NC[C@@H](C)c3cc(F)c(N4CC5CCC(C4)N5)cc3F)cnc21 (single isomer, unassigned) [Example 2-4] | ++ (“++”: 0.2-2 μM) |
| CCn1ccc2cc(C(=O)NC[C@H](C)c3cc(F)c(N4CC5CCC(C4)N5)cc3F)nnc21 (single isomer, unassigned) [Example 4-2] | ++ (“++”: 0.2-2 μM) |
| CCn1ccc2cc(C(=O)NC[C@@H](C)c3cc(F)c(N4CC5CCC(C4)N5)cc3F)nnc21 (single isomer, unassigned) [Example 4-3] | ++ (“++”: 0.2-2 μM) |
| CCn1ccc2cc(C(=O)NCCc3cc(F)c(N4CC5CCC(C4)N5)cc3F)cnc21 [Example 1-1, N-[2-(4-[3,8-diazabicyclo[3.2.1]octan-3-yl]-2,5-difluorophenyl)ethyl]-1-ethyl-1H-pyrrolo[2,3-b]pyridine-5-carboxamide] | +++ (“+++”: 0.05-0.2 μM) |
| O=C(NCCc1ccc(N2CCNCC2)cc1)c1cnc2[nH]ccc2c1 [Example 1-2, N-(4-(piperazin-1-yl)phenethyl)-1H-pyrrolo[2,3-b]pyridine-5-carboxamide] | + (“+”: 2-10 μM) |
| Cn1ccc2cc(C(=O)NCCc3ccc(N4CCNCC4)cc3)cnc21 [Example 1-3, 1-methyl-N-(4-(piperazin-1-yl)phenethyl)-1H-pyrrolo[2,3-b]pyridine-5-carboxamide] | ++ (“++”: 0.2-2 μM) |
| CCn1ccc2cc(C(=O)NCCc3ccc(N4CCNCC4)cc3)cnc21 [Example 1-4, 1-ethyl-N-(4-(piperazin-1-yl)phenethyl)-1H-pyrrolo[2,3-b]pyridine-5-carboxamide] | +++ (“+++”: 0.05-0.2 μM) |
| Nc1c(C(=O)NCCc2ccc(N3CCNCC3)cc2)cnc2[nH]ccc12 [Example 1-5, 4-amino-N-(4-(piperazin-1-yl)phenethyl)-1H-pyrrolo[2,3-b]pyridine-5-carboxamide] | + (“+”: 2-10 μM) |
| CCn1ccc2cc(C(=O)NCCc3ccc(N4CC5CCC(C4)N5)cc3)cnc21 [Example 1-6, N-(4-(3,8-diazabicyclo[3.2.1]octan-3-yl)phenethyl)-1-ethyl-1H-pyrrolo[2,3-b]pyridine-5-carboxamide] | ++++ (“++++”: 0.001-0.05 μM) |
| CCn1ccc2cc(C(=O)NCCc3cc(F)c(N4CCNCC4)cc3F)cnc21 [Example 1-7, N-(2,5-difluoro-4-(piperazin-1-yl)phenethyl)-1-ethyl-1H-pyrrolo[2,3-b]pyridine-5-carboxamide] | +++ (“+++”: 0.05-0.2 μM) |
| O=C(NCCc1ccc(N2CCNCC2)cc1)c1cnc2c(ccn2CC(F)(F)F)c1 [Example 1-8] | +++ (“+++”: 0.05-0.2 μM) |
| CC(C)(O)Cn1ccc2cc(C(=O)NCCc3cc(F)c(N4CC5CCC(C4)N5)cc3F)cnc21 [Example 1-9, N-(4-(3,8-diazabicyclo[3.2.1]octan-3-yl)-2,5-difluorophenethyl)-1-(2-hydroxy-2-methylpropyl)-1H-pyrrolo[2,3-b]pyridine-5-carboxamide] | − (“−”: >10 μM) |
| CCn1ccc2cc(C(=O)NCCc3ccc(N4CC5CCC(C4)N5)c(F)c3)cnc21 [Example 1-10, N-(4-(3,8-diazabicyclo[3.2.1]octan-3-yl)-3-fluorophenethyl)-1-ethyl-1H-pyrrolo[2,3-b]pyridine-5-carboxamide] | +++ (“+++”: 0.05-0.2 μM) |
| CCn1cc(Cl)c2cc(C(=O)NCCc3ccc(N4CCNCC4)cc3)cnc21 [Example 3-1, 3-Chloro-1-ethyl-N-[2-[4-(piperazin-1-yl)phenyl]ethyl]-1H-pyrrolo[2,3-b]pyridine-5-carboxamide] | +++ (“+++”: 0.05-0.2 μM) |
| O=C(NCCc1ccc(N2CCNCC2)cc1)c1cnc2[nH]cc(Cl)c2c1 [Example 3-2, 3-chloro-N-(4-(piperazin-1-yl)phenethyl)-1H-pyrrolo[2,3-b]pyridine-5-carboxamide] | + (“+”: 2-10 μM) |
| CCn1ccc2cc(C(=O)NCCc3cc(F)c(N4CC5CCC(C4)N5)cc3F)nnc21 [Example 4-1, N-[2-(4-[3,8-diazabicyclo[3.2.1]octan-3-yl]-2,5-difluorophenyl)ethyl]-7-ethyl-7H-pyrrolo[2,3-c]pyridazine-3-carboxamide] | +++ (“+++”: 0.05-0.2 μM) |
| CCn1cc(Cl)c2cc(C(=O)NCCc3cc(F)c(N4CC5CCC(C4)N5)cc3F)nnc21 [Example 4-4, N-(4-(3,8-diazabicyclo[3.2.1]octan-3-yl)-2,5-difluorophenethyl)-5-chloro-7-ethyl-7H-pyrrolo[2,3-c]pyridazine-3-carboxamide] | +++ (“+++”: 0.05-0.2 μM) |
